Reference: PubChem BioAssay (NCI)
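Method: 48-hour compound exposure of cells in 96-well plates, five concentrations, linear interpolation of endpoints. The concentration for full growth arrest is given as TGI.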

What was measured:
Assay in all cases: growth of human tumour cells (NCI), 48 h
PC-3 prostate = test system: PC-3 prostate
BT-549 breast = test system: BT-549 breast
KM12 colon = test system: KM12 colon
MOLT-4 leukemia = test system: MOLT-4 leukemia
SW-620 colon = test system: SW-620 colon
U251 CNS = test system: U251 CNS
HT29 colon = test system: HT29 colon
M14 melanoma = test system: M14 melanoma
A549 NSCLC = test system: A549 NSCLC
NCI-H226 lung = test system: NCI-H226 lung
T-47D breast = test system: T-47D breast
786-0 renal = test system: 786-0 renal
MDA-N = test system: MDA-N
SNB-19 CNS = test system: SNB-19 CNS
HOP-92 NSCLC = test system: HOP-92 NSCLC
UACC-257 melanoma = test system: UACC-257 melanoma
UACC-62 melanoma = test system: UACC-62 melanoma
SF-268 CNS = test system: SF-268 CNS
MDA-MB-231 breast = test system: MDA-MB-231 breast
UO-31 renal = test system: UO-31 renal
NCI-H522 lung = test system: NCI-H522 lung
OVCAR-5 ovarian = test system: OVCAR-5 ovarian
CAKI-1 renal = test system: CAKI-1 renal
HCT-116 colon = test system: HCT-116 colon
TK-10 renal = test system: TK-10 renal
NCI/ADR-RES ovarian = test system: NCI/ADR-RES ovarian
HCT-15 colon = test system: HCT-15 colon
NCI-H460 lung = test system: NCI-H460 lung
ACHN renal = test system: ACHN renal
OVCAR-4 ovarian = test system: OVCAR-4 ovarian
OVCAR-3 ovarian = test system: OVCAR-3 ovarian
MCF7 breast = test system: MCF7 breast
DU-145 prostate = test system: DU-145 prostate
MDA-MB-435 = test system: MDA-MB-435
RXF 393 renal = test system: RXF 393 renal
K-562 leukemia = test system: K-562 leukemia
HS 578T breast = test system: HS 578T breast
EKVX NSCLC = test system: EKVX NSCLC
COLO 205 colon = test system: COLO 205 colon
SK-OV-3 ovarian = test system: SK-OV-3 ovarian
CCRF-CEM leukemia = test system: CCRF-CEM leukemia
NCI-H23 lung = test system: NCI-H23 lung
HL-60(TB) leukemia = test system: HL-60(TB) leukemia
OVCAR-8 ovarian = test system: OVCAR-8 ovarian
SR leukemia = test system: SR leukemia
A498 renal = test system: A498 renal
SK-MEL-5 melanoma = test system: SK-MEL-5 melanoma
LOX IMVI melanoma = test system: LOX IMVI melanoma
MALME-3M melanoma = test system: MALME-3M melanoma
SF-295 CNS = test system: SF-295 CNS
IGROV1 ovarian = test system: IGROV1 ovarian
HOP-62 NSCLC = test system: HOP-62 NSCLC
SNB-75 CNS = test system: SNB-75 CNS
SN12C renal = test system: SN12C renal
SK-MEL-28 melanoma = test system: SK-MEL-28 melanoma
SK-MEL-2 melanoma = test system: SK-MEL-2 melanoma
HCC-2998 colon = test system: HCC-2998 colon
SF-539 CNS = test system: SF-539 CNS
RPMI-8226 leukemia = test system: RPMI-8226 leukemia

COC(=O)[C@H](Cc1ccccc1)NC(=O)[C@H](Cc1ccccc1)NC(=O)[C@@H]1CCCN1C(=O)N[C@H]1C2C=CC(C2)C1C(=O)N1CCC[C@H]1C(=O)N[C@@H](C)C(=O)N[C@H](C(=O)OC)C(C)C (stereo partly drawn)
TGI (PC-3 prostate): > 100 µM | TGI (BT-549 breast): > 100 µM | TGI (KM12 colon): > 100 µM | TGI (MOLT-4 leukemia): 85.6 µM | TGI (SW-620 colon): > 100 µM | TGI (U251 CNS): > 100 µM | TGI (HT29 colon): > 100 µM | TGI (M14 melanoma): > 100 µM | TGI (A549 NSCLC): > 100 µM | TGI (NCI-H226 lung): > 100 µM | TGI (T-47D breast): > 100 µM | TGI (786-0 renal): > 100 µM | TGI (MDA-N): > 100 µM | TGI (SNB-19 CNS): > 100 µM | TGI (HOP-92 NSCLC): > 100 µM | TGI (UACC-257 melanoma): > 100 µM | TGI (UACC-62 melanoma): > 100 µM | TGI (SF-268 CNS): > 100 µM | TGI (MDA-MB-231 breast): > 100 µM | TGI (UO-31 renal): > 100 µM | TGI (NCI-H522 lung): > 100 µM | TGI (OVCAR-5 ovarian): > 100 µM | TGI (CAKI-1 renal): > 100 µM | TGI (HCT-116 colon): > 100 µM | TGI (TK-10 renal): > 100 µM | TGI (NCI/ADR-RES ovarian): > 100 µM | TGI (HCT-15 colon): > 100 µM | TGI (NCI-H460 lung): > 100 µM | TGI (ACHN renal): > 100 µM | TGI (OVCAR-4 ovarian): > 100 µM | TGI (OVCAR-3 ovarian): > 100 µM | TGI (MCF7 breast): > 100 µM | TGI (DU-145 prostate): > 100 µM | TGI (MDA-MB-435): > 100 µM | TGI (RXF 393 renal): > 100 µM | TGI (K-562 leukemia): > 100 µM | TGI (HS 578T breast): > 100 µM | TGI (EKVX NSCLC): > 100 µM | TGI (COLO 205 colon): > 100 µM | TGI (SK-OV-3 ovarian): > 100 µM | TGI (CCRF-CEM leukemia): 56.4 µM | TGI (NCI-H23 lung): > 100 µM | TGI (HL-60(TB) leukemia): > 100 µM | TGI (OVCAR-8 ovarian): > 100 µM | TGI (SR leukemia): > 100 µM | TGI (A498 renal): > 100 µM | TGI (SK-MEL-5 melanoma): > 100 µM | TGI (LOX IMVI melanoma): > 100 µM | TGI (MALME-3M melanoma): > 100 µM | TGI (SF-295 CNS): > 100 µM | TGI (IGROV1 ovarian): > 100 µM | TGI (HOP-62 NSCLC): > 100 µM | TGI (SNB-75 CNS): > 100 µM | TGI (SN12C renal): > 100 µM | TGI (SK-MEL-28 melanoma): > 100 µM

CC1CCC(=O)C(C(=O)CC2CC(=O)NC(=O)C2)C1 (stereo not drawn)
TGI (PC-3 prostate): > 100 µM | TGI (BT-549 breast): > 100 µM | TGI (KM12 colon): > 100 µM | TGI (MOLT-4 leukemia): > 100 µM | TGI (SW-620 colon): > 100 µM | TGI (U251 CNS): > 100 µM | TGI (HT29 colon): > 100 µM | TGI (M14 melanoma): > 100 µM | TGI (A549 NSCLC): > 100 µM | TGI (NCI-H226 lung): > 100 µM | TGI (T-47D breast): > 100 µM | TGI (786-0 renal): > 100 µM | TGI (MDA-N): > 100 µM | TGI (SNB-19 CNS): > 100 µM | TGI (SK-MEL-2 melanoma): > 100 µM | TGI (HOP-92 NSCLC): > 100 µM | TGI (UACC-257 melanoma): > 100 µM | TGI (UACC-62 melanoma): > 100 µM | TGI (SF-268 CNS): > 100 µM | TGI (MDA-MB-231 breast): > 100 µM | TGI (HCC-2998 colon): > 100 µM | TGI (UO-31 renal): > 100 µM | TGI (OVCAR-5 ovarian): > 100 µM | TGI (CAKI-1 renal): > 100 µM | TGI (HCT-116 colon): > 100 µM | TGI (TK-10 renal): > 100 µM | TGI (NCI/ADR-RES ovarian): > 100 µM | TGI (HCT-15 colon): > 100 µM | TGI (NCI-H460 lung): > 100 µM | TGI (ACHN renal): > 100 µM | TGI (OVCAR-4 ovarian): > 100 µM | TGI (SF-539 CNS): > 100 µM | TGI (OVCAR-3 ovarian): > 100 µM | TGI (MCF7 breast): > 100 µM | TGI (DU-145 prostate): > 100 µM | TGI (MDA-MB-435): > 100 µM | TGI (RXF 393 renal): > 100 µM | TGI (K-562 leukemia): > 100 µM | TGI (RPMI-8226 leukemia): > 100 µM | TGI (HS 578T breast): > 100 µM | TGI (EKVX NSCLC): > 100 µM | TGI (COLO 205 colon): > 100 µM | TGI (SK-OV-3 ovarian): > 100 µM | TGI (CCRF-CEM leukemia): > 100 µM | TGI (NCI-H23 lung): > 100 µM | TGI (HL-60(TB) leukemia): > 100 µM | TGI (OVCAR-8 ovarian): > 100 µM | TGI (SR leukemia): > 100 µM | TGI (A498 renal): > 100 µM | TGI (SK-MEL-5 melanoma): > 100 µM | TGI (LOX IMVI melanoma): > 100 µM | TGI (MALME-3M melanoma): > 100 µM | TGI (SF-295 CNS): > 100 µM | TGI (IGROV1 ovarian): > 100 µM | TGI (HOP-62 NSCLC): > 100 µM | TGI (SNB-75 CNS): > 100 µM | TGI (SN12C renal): > 100 µM | TGI (SK-MEL-28 melanoma): > 100 µM
